Article PMC4829254, “Complex Minigene Library Vaccination for Discovery of Pre-Erythrocytic Plasmodium T Cell Antigens” (PLoS ONE, 2016)
Peptide text beside a SMILES is read from it.

Target: T1, H2-K^d (Mus musculus, UniProt P01902)
T1 construct: expressed in transfected cells; host or cells: RMA/S lymphoma cell line expressing H2-K^d
T1 sequence (P01902 22-368): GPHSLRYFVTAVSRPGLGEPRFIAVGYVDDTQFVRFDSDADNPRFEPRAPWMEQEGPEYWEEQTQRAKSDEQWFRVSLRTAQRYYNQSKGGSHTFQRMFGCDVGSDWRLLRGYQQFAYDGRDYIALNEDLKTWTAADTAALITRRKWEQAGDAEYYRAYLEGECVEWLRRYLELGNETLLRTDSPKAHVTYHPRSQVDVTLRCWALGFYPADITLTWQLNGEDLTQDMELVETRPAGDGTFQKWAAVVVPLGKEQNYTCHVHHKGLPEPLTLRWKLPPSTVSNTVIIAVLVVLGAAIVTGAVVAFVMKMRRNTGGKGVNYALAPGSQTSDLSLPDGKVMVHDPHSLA
T1 sequence (P01887 21-119 partner): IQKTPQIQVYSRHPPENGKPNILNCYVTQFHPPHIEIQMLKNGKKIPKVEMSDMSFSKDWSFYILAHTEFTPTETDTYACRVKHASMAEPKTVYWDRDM
Assay: MHC binding assay (RMA/S cells expressing H2-K^d)
Set-up: species or system murine
Conditions: H2-K^d stabilization, read-out: apparent Kd
Experimental: RMA/S cells expressing H2-K^d were used to test MHC binding as described.
The affinity of SYQKSINNI for H2-K^d was determined using an RMA/S lymphoma cell line expressing H2-Kd as previously described.
Fig 4 The PyMDH epitope binds to murine H2-K^d. RMA/S cells expressing H2-K^d were incubated with peptides for PyCSP (squares), PyMDH (circles) or non-specific peptide. PyCSP and PyMDH peptides stabilized H2-K^d, indicative of specific MHC binding. Error bars indicate the 95% confidence interval.

| Structure (SMILES) | Kd [nM] |
| --- | --- |
| CC[C@H](C)[C@H](NC(=O)[C@H](CCC(N)=O)NC(=O)[C@H](CCC(=O)O)NC(=O)[C@H](C)NC(=O)[C@H](CO)NC(=O)[C@@H]1CCCN1C(=O)[C@@H](NC(=O)[C@H](Cc1ccc(O)cc1)NC(=O)[C@@H](N)CO)C(C)C)C(=O)O [PyCSP peptide] (H-SYVPSAEQI-OH) | 9.6 |
| CC[C@H](C)[C@H](NC(=O)[C@H](CC(N)=O)NC(=O)[C@H](CC(N)=O)NC(=O)[C@@H](NC(=O)[C@H](CO)NC(=O)[C@H](CCCCN)NC(=O)[C@H](CCC(N)=O)NC(=O)[C@H](Cc1ccc(O)cc1)NC(=O)[C@@H](N)CO)[C@@H](C)CC)C(=O)O [PyMDH peptide] (H-SYQKSINNI-OH) | 11.6 |
